Laboratory results taken from patent publication US20250353873A1, “COMPOUNDS AND METHODS FOR MODULATING APOE EXPRESSION” (Ionis Pharmaceuticals, Inc., priority 2024, published 2025).
Strand notation (5' to 3'): a small letter for the sugar, then the base; units joined by * are phosphorothioate-linked, units joined directly phosphodiester-linked; [ ] holds rarer units or linkages, { } end groups; capitals alone tell only the bases. e = 2'-O-(2-methoxyethyl) (MOE); k = constrained ethyl (cEt); [5mC] = 5-methylcytosine; d = 2'-deoxy (DNA)

Assays:
human APOE RNA [1] = assay: Activity in APOE C57BL/6NTac-Apoeem7250 knock-in mice, single ICV bolus, 20 weeks (Example 13); format: in vivo; settings: single ICV bolus 300 μg, 20 weeks post treatment, normalized to mouse Ppia
Experimental: Modified oligonucleotides described above were tested in the APOE C57BL/6NTac-Apoeem7250 knock-in mouse model described above.
APOE C57BL/6NTac-Apoeem7250 knock-in mice were divided into groups of 4 mice each. Each mouse received a single ICV bolus of 300 μg of modified oligonucleotide. A group of 2-4 mice received a single ICV bolus with PBS as a negative control.
Twenty weeks post treatment, mice were sacrificed and RNA was extracted from cortical brain tissue and spinal cord for quantitative real-time RT-PCR analysis of RNA expression of APOE using human primer probe set RTS3073 (described herein above). APOE RNA levels were normalized to mouse Ppia. Mouse Ppia was amplified using primer probe set m_cyclo24 (described herein above). Results are presented as percent human APOE RNA relative to the amount of human APOE RNA in PBS treated animals, (% control). Each experiment is identified in separate tables below.

human APOE RNA [2] = assay: Dose-dependent inhibition of human APOE RNA in HepG2 cells, electroporation, 50,000 cells per well, RT-PCR normalized to GAPDH (Example 4, Tables 8-10); format: cell-based; settings: HepG2, electroporation, 16-hour treatment
How it was run: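 HepG2 cells, 50,000 per well, electroporated with modified oligonucleotide at various concentrations. APOE RNA quantified by RT-PCR with human primer probe set RTS3073, normalized to GAPDH. Values are percent APOE RNA relative to untreated control cells.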

Substance	APOE RNA (% control) Cortex (human APOE RNA [1]) [% control]	APOE RNA (% control) Spinal Cord (human APOE RNA [1]) [% control]	APOE RNA (% UTC) (human APOE RNA [2]; 5 nM)	APOE RNA (% UTC) (human APOE RNA [2]; 13 nM)	APOE RNA (% UTC) (human APOE RNA [2]; 33 nM)	APOE RNA (% UTC) (human APOE RNA [2]; 82 nM)	APOE RNA (% UTC) (human APOE RNA [2]; 205 nM)	APOE RNA (% UTC) (human APOE RNA [2]; 512 nM)	APOE RNA (% UTC) (human APOE RNA [2]; 1,280 nM)	APOE RNA (% UTC) (human APOE RNA [2]; 3,200 nM)	APOE RNA (% UTC) (human APOE RNA [2]; 8,000 nM)	APOE RNA (% UTC) (human APOE RNA [2]; 20,000 nM)	IC50 (human APOE RNA [2]) [nM]
1757544: mixed MOE/cEt gapmer TTGGTGAATCTTTATTAA, sugar ekeeeddddddddeeeee, linkages soossssssssssooss (eT*kTeGeG*eT*dG*dA*dA*dT*d[5mC]*dT*dT*dT*eAeTeT*eA*eA) [compound 1757544]	101	96	104	86	100	111	90	75	59	42	26	12	2180
1757561: mixed MOE/cEt gapmer TTGGTGAATCTTTATTAA, sugar eeekkddddddddkeeee, linkages soossssssssssooss (eT*eTeGkG*kT*dG*dA*dA*dT*d[5mC]*dT*dT*dT*kAeTeT*eA*eA) [compound 1757561]	92	64	96	191	240	104	130	71	45	38	35	12	2090
1757562: mixed MOE/cEt gapmer TTGGTGAATCTTTATTAA, sugar eeeekddddddddkkeee, linkages soossssssssssooss (eT*eTeGeG*kT*dG*dA*dA*dT*d[5mC]*dT*dT*dT*kAkTeT*eA*eA) [compound 1757562]	96	88	160	86	56	87	52	45	40	29	28	16	570
1757541: mixed MOE/cEt gapmer TTGGTGAATCTTTATTAA, sugar eeeekddddddddeeeee, linkages soossssssssssooss (eT*eTeGeG*kT*dG*dA*dA*dT*d[5mC]*dT*dT*dT*eAeTeT*eA*eA) [compound 1757541]	88	80	104	103	100	99	91	66	60	38	22	8	1790
1757554: mixed MOE/cEt gapmer TTGGTGAATCTTTATTAA, sugar kkeeeddddddddeeeee, linkages soossssssssssooss (kT*kTeGeG*eT*dG*dA*dA*dT*d[5mC]*dT*dT*dT*eAeTeT*eA*eA) [compound 1757554]	95	68	91	113	101	106	89	71	52	27	28	13	1570
1757568 (eA*e[5mC]eTeTeG*dG*dT*dG*dA*dA*dT*d[5mC]*dT*dT*dT*kAkTeT*eA*eA; antisense) [Compound 1757568]	73	58	86	87	104	96	93	63	47	31	21	19	1390
1757563: mixed MOE/cEt gapmer TTGGTGAATCTTTATTAA, sugar eeeekddddddddkekee, linkages soossssssssssooss (eT*eTeGeG*kT*dG*dA*dA*dT*d[5mC]*dT*dT*dT*kAeTkT*eA*eA) [compound 1757563]	93	71	95	103	84	94	76	67	54	41	17	8	1380
1757551: mixed MOE/cEt gapmer TTGGTGAATCTTTATTAA, sugar eeekkddddddddeeeee, linkages soossssssssssooss (eT*eTeGkG*kT*dG*dA*dA*dT*d[5mC]*dT*dT*dT*eAeTeT*eA*eA) [compound 1757551]	93	53	91	248	88	55	52	41	35	29	14	9	430
1757564: mixed MOE/cEt gapmer TTGGTGAATCTTTATTAA, sugar eeeekddddddddkeeke, linkages soossssssssssooss (eT*eTeGeG*kT*dG*dA*dA*dT*d[5mC]*dT*dT*dT*kAeTeT*kA*eA) [compound 1757564]	95	69	91	86	92	93	82	72	62	39	22	33	2210
